According to US5328913A, “Minoxidil analogs as inhibitors of cell proliferation and lysyl hydroxylase” (priority 1992, dated 1994):
“Also recorded” adds a separate entry of the source.

Tests used:
Type in all cases: cell-based
lysyl hydroxylase [1] = assay: Lysyl hydroxylase activity in extracts of treated human skin fibroblasts (Example 1, tritium-release assay); details: for Lysyl hydroxylase activity (%) / effect on lysyl hydroxylase activity (in words): 72 h; for Lysyl hydroxylase activity (%): 1% ethanol; for increase of the level of lysyl hydroxylase activity: 72 h (Table I text); for effect on lysyl hydroxylase activity (in words): cultured fibroblasts, Example 1
Protocol: Cultures of human skin fibroblasts grown to confluence were incubated for 72 h in medium supplemented with 1% ethanol containing various concentrations of minoxidil or deoxyminoxidil as indicated. Cells were then harvested, and the enzyme activities in extracts of these cells were measured by tritium-release assays (Murad and Pinnell, J. Biol. Chem. 262:11,973 (1987)). The results are expressed as percentages of zero-concentration values.
Cultures of human skin fibroblasts grown to confluence were incubated for 72 h in medium supplemented with 1% ethanol containing various concentrations of minoxidil or with 1% acetone containing various concentrations of minoxidil sulfate, as indicated. Cells were then harvested, and the enzyme activities in extracts of these cells were measured by tritium release assays (Murad and Pinnell, J. Biol. Chem. 262:11,973 (1987)). The results are expressed as percentages of zero-concentration values.
Skin fibroblast cultures derived from an apparently normal child (GM05659) were obtained from the Institute for Medical Research, Camden, N.J. The cells were subcultured by trypsinization and used before 25 population doublings. Typically, 4×10^5 cells were seeded onto 100-mm (diameter) plastic petri dishes and allowed to grow in 10 ml of Dulbecco's modified Eagle's minimum essential medium containing 5.6 mM glucose, buffered in pH 7.4 with 24 mM sodium biocarbonate/25 mM Hepes and supplemented with 20% (v/v) calf serum which had been inactivated for 30 min at 56° C. The cells were incubated at 37° C. in a humidified atmosphere of 5% CO2 plus 95% air.
After a week, the medium was replaced with medium supplemented with 0.5% heat-inactivated diaylzed calf serum, and the incubation was continued for 72 h in the presence of minoxidil or one of its structural analogs. The compounds were dissolved in 95% ethanol, except minoxidil sulfate which was dissolved in acetone; the final solvent concentration was 1% (v/v). During the last 3 h of incubation, cells received 100 μM Na L-ascorbate to ensure complete hydroxylation of the polypeptide precursors of precollagen (Murad et al, J. Invest. Dermatol. 75:404 (1980)).
The medium was then removed and the cells were washed twice with a solution containing 0.14 M NaCl, 5 mM KCl, 0.3 mM Na2 PO4, and 0.4 mM KH2 PO4, adjusted to pH 7.4. The cells were detached from the plates with a solution containing 0.05% trypsin, 0.54 mM EDTA, 5.5mM glucose, 6.90mM NaHCO3, […], and 5 mM KCl. The trypsinization was terminated with 2 vol of 20% serum-supplemented medium, and the cell number in an aliquot of the suspension was determined using a Coulter counter.
The detached cells were collected by centrifugation at 500g for 6 min at 4° C. washed twice by suspending in phosphate-buffered NaCl/KCl as above, and then centrifuged. The cell pellet was suspended in a medium (1 ml/5×10^6 cells) containing 0.2 M NaCl, 0.1 M glycine, 50 μM dithiothreitol, 20 mM Tris-HCl, buffer (pH 7.5), 0.1% Triton X-100, and 0.01% soybean trypsin inhibitor. The suspension was sonicated for 30 s using a Branson sonifier cell disrupter. The lysate was centrifuged at 27,000g for 1 h at 4° C., and the resulting supernatant was used for prolyl and lysyl hydroxylase assays (Murad and Pinnell, J. Biol. Chem. 262:11, 973 (1987)). The enzyme activities are based on a unit of soluble cell protein.
The protein content of cell extracts was determined by a dye-binding technique using Bio-Rad reagent and protein standard (Bradford, Anal. Biochem. 72:248 (1976)).
Note: Cultures of human skin fibroblasts grown to confluence were
incubated for 72 h in medium supplemented with 1% ethanol containing 1 mM
of the indicated compounds. Cells were then harvested, and the enzyme
activity in extracts of these cells was measured by a tritiumrelease
incubated for 72 h in medium supplemented with 1% ethanol containing 1 nM

lysyl hydroxylase [2] = assay: as above
lysyl hydroxylase [3] = assay: Lysyl hydroxylase activity in extracts of treated human skin fibroblasts (Example 2, pyridine, triazine and N-alkyl analogs); details: for IC50: 72 hr (FIG. 4, FIG. 5), read-out: concentration giving 50% inhibition (lysyl hydroxylase)
Protocol: (§1) Cells were treated for 72 hr with minoxidil or its triazine analog at the indicated concentrations. The enzyme activities in extracts of treated cells were measured by tritium release assays (Murad and Pinnell, J. Biol. Chem. 262:11,973 (1987)) and are expressed as a percentage of zero-concentration values. PH, prolyl hydroxylase; LH, lysyl hydroxylase.
Cells were treated for 72 hr with various concentrations of minoxidil or its N-alkyl analogs as indicated. The enzyme activity in extracts of treated cells was measured by tritium release assays (Murad and Pinnell, J. Biol. Chem. 262:11,973 (1987)) and is expressed as a percentage of zero-concentration value. The minoxidil curve is reproduced from FIG. 4.
Cultures of human skin fibroblast (1.5×10^6 cells) were seeded onto 100-mm plates and incubated at 37° in Dulbecco's modified Eagle's medium supplemented with 20% calf serum. After 24 hr, the medium was replaced with medium supplemented with 0.5% heat-inactivated dialyzed calf serum. The incubation was continued for an additional 72 hr in the presence of 0.1-2 μM minoxidil analogs dissolved in 0.12N HCl; the final concentration of HCl was 0.0012N or 0.0024N. Cells treated with HCl only served as control. During the last 3 hr of incubation, cells received […] ascorbic acid to ensure complete hydroxylation of the polypeptide precursors of procollagen (Murad et al, J. Invest. Dermatol. 75:404 (1980)). At the end of the incubation period, cells were harvested by trypsinization and disrupted by sonication in a buffered medium (Murad et al, J. Biol. Chem. 262:11,973 (1987)).
(§2) Lysyl hydroxylase activity in extracts of treated cells was measured with an underhydroxylated procollagen substrate (Murad et al, J. Biol. Chem. 262:11,973 (1987)), which was prepared by labeling cultures of human skin fibroblasts with L-[4,5-^3 H]lysine in the presence of an iron chelator α,α'-dipyridyl (Murad and Pinnell, Conn. Tiss. Res. 13:181 (1985)). The amount of tritium released was quantitated as ^3 HO after vacuum distillation . Prolyl hydroxylase activity was similarly measured with an underhydroxylated procollagen substrate containing L-[4-^3 H]proline (Murad and Pinnell, J. Biol. Chem. 262:11973 (1987); Murad and Pinnell, Conn. Tiss. Res. 13:181 (1985)). The enzyme activities are based on a unit of soluble cell protein. The protein content of cell extracts was determined by a dye-binding techniques using Bio-Rad reagents (Bradford, Anal. Biochem. 72:248 (1976)).
Cells were treated for 72 hr with 1 mM minoxidil or its
structural analogs as indicated. The enzyme activity in extracts
of treated cells was measured by a tritium-release assay and is
expressed as a percentage of HCl-treated control.

prolyl hydroxylase = assay: Prolyl hydroxylase activity in extracts of treated human skin fibroblasts (Example 2); details: 72 hr; N,N-diethyl analog up to 2 mM
Protocol: as §1
Cultures of human skin fibroblast (1.5×10^6 cells) were seeded onto 100-mm plates and incubated at 37° in Dulbecco's modified Eagle's medium supplemented with 20% calf serum. After 24 hr, the medium was replaced with medium supplemented with 0.5% heat-inactivated dialyzed calf serum. […] Cells treated with HCl only served as control. […]
as §2, with “The enzyme activities are based on a unit of soluble cell protein. The protein content of cell extracts was determined by a dye-binding techniques using Bio-Rad reagents (Bradford, Anal. Biochem. 72:248 (1976)).” left out

[4] = 1 mM, % of solvent-treated controls (Table I)
[5] = 1 nM, % of ethanol-treated controls (Table II)

Compound: CC1(C)CC(O)CC(C)(C)N1[O] [4-Hydroxy-2,2,6,6-tetramethylpiperidine-N-oxyl]
- Lysyl hydroxylase activity (%) (lysyl hydroxylase [1]; [4]): 130%
- increase of the level of lysyl hydroxylase activity (lysyl hydroxylase [1]): 30-40%

Compound: [O-][n+]1ccc(-c2ccccc2)cc1 [4-Phenylpyridine-N-oxide]
- Lysyl hydroxylase activity (%) (lysyl hydroxylase [2]; 0.3 mM, dissolved in ethanol, final concentration 0.3%, 72 h, % of solvent-treated controls (Table I)): 99%

Compound: CC1(C)CCC=[N+]1[O-] [5,5-Dimethyl-1-pyrroline-N-oxide]
- Lysyl hydroxylase activity (%) (lysyl hydroxylase [1]; [4]): 103%

Compound: Cc1cc(N2CCOCC2)nc(N)[n+]1[O-] [Compound VIII (Table II)]
- Lysyl hydroxylase activity (%) (lysyl hydroxylase [1]; [5]): 91%
- effect on lysyl hydroxylase activity (in words) (lysyl hydroxylase [1]): inactive

Compound: Nc1nc(N2CCCCC2)nc(N)[n+]1[O-] [Compound II (Table III)]
- IC50 (lysyl hydroxylase [3]): ~800 µM
- effect on lysyl hydroxylase activity (in words) (lysyl hydroxylase [3]; 72 hr, Example 2, listed as triazine analog): no significant effect up to 0.2 mM; also recorded: less potent than minoxidil
- effect on prolyl hydroxylase activity (in words) (prolyl hydroxylase): failure to decrease the activity of prolyl hydroxylase

Compound: Cc1c([N+](=O)[O-])c(N2CCCCC2)nc(N)[n+]1[O-] [Compound VI (Table II)]
- Lysyl hydroxylase activity (%) (lysyl hydroxylase [1]; [5]): 34%
- effect on lysyl hydroxylase activity (in words) (lysyl hydroxylase [1]): no significant effect on its inhibitory activity

Compound: [O-][n+]1cccc(O)c1 [3-Hydroxypyridine-N-oxide]
- Lysyl hydroxylase activity (%) (lysyl hydroxylase [1]; [4]): 99%

Compound: Cc1cc(N2CCCC2)nc(N)[n+]1[O-] [Compound VII (Table II)]
- Lysyl hydroxylase activity (%) (lysyl hydroxylase [1]; [5]): 88%
- effect on lysyl hydroxylase activity (in words) (lysyl hydroxylase [1]): inactive

Compound: CCN(CC)c1cc(N)[n+]([O-])c(N)n1 [Compound III (Table III)]
- IC50 (lysyl hydroxylase [3]): ~1000 µM
- effect on prolyl hydroxylase activity (in words) (prolyl hydroxylase): no significant effect on prolyl hydroxylase activity

Compound: Nc1[nH]c(=O)c2nc[nH]c2[n+]1[O-] [Guanine 3-N-oxide]
- increase of the level of lysyl hydroxylase activity (lysyl hydroxylase [1]): 30-40%
- Lysyl hydroxylase activity (%) (lysyl hydroxylase [2]; 1 mM, dissolved in NaOH, final concentration 0.001 N, 72 h, % of solvent-treated controls (Table I)): 132%

Compound: CN1CCN(c2cc(N)[n+]([O-])c(N)n2)CC1 [Compound IX (Table II)]
- effect on lysyl hydroxylase activity (in words) (lysyl hydroxylase [1]): inactive
- Lysyl hydroxylase activity (%) (lysyl hydroxylase [2]; 0.1 mM, dissolved in HCl, final concentration 0.0012 N, 72 h (Table II footnote a)): 109%

Compound: O=C(O)c1cc[n+]([O-])cc1 [Isonicotinic acid N-oxide]
- Lysyl hydroxylase activity (%) (lysyl hydroxylase [2]; 1 mM, dissolved in aqueous medium, 72 h, % of solvent-treated controls (Table I)): 90%
